# According to the NIST ThermoML archive (doi:10.1021/je7007582):
# ± gives the expanded uncertainty stated by the source.
# Details: Liquid; for mass density: 298.15 K, 101.33 kPa, Pycnometric method; for Normal boiling temperature: Ebulliometric method (Recirculating still)
Compound,mass density,Normal boiling temperature
CC(C)CO [2-methyl-1-propanol],797.8 ± 0.7 kg/m3,107.77 ± 0.05 °C
CCCCO [butan-1-ol],805.7 ± 0.7 kg/m3,
CCC(C)O (stereo not drawn) [butan-2-ol],802.3 ± 0.7 kg/m3,99.48 ± 0.05 °C
CCO [ethanol],785.2 ± 0.7 kg/m3,78.31 ± 0.05 °C
CO [methanol],786.6 ± 0.7 kg/m3,64.49 ± 0.05 °C
CCCO [propan-1-ol],799.6 ± 0.7 kg/m3,97.06 ± 0.05 °C
CC(C)O [propan-2-ol],780.8 ± 0.7 kg/m3,82.2 ± 0.05 °C
